“Also recorded” adds a separate entry of the source.
Experiments:
ADX mice [1] = experiment: Hair cycle progression of ADX mice treated topically with R428; type: in vivo; conditions: R428 2 mM in ethanol, topical once a day, back skin of ADX mice
Procedure: (§1) C57BL/6J mice were anesthetized. Small incisions were made on the back skin right on top of each adrenal gland. Both adrenal glands were removed with a pair of curved forceps. Sham-operated mice (Sham) underwent the same procedures as the ADX mice, except their adrenal glands were not removed.
RU486 (TCI America, Cat #M1732; 4% in ethanol) was used to induce K15-CrePGR by topical application for 10-14 days. To induce Pdgfra-CreER and Sox2-CreER, tamoxifen (Millipore Sigma, T5648; 20 mg/kg) was injected into mice intraperitoneally once per day for 4 to 6 days. To inhibit AXL activity, R428 (APExBIO, A8329; 2 mM in ethanol) was applied to ADX mice topically once a day. EdU (Lumiprobe Corporation, Cat #10540; 25 mg/kg) were administered by intraperitoneal injections. AAVs were produced as described previously^46 and injected directly into dermis through intradermal injections. 2-month-old C57BL/6J mice were injected with AAV-GFP or AAV-Gas6 (1×10^11 genome copy number per animal).
The hair cycle progression was documented by standardized photographs at the start of each experiment and weekly thereafter. Anagen was determined by darkening of the skin followed by hair growth as previously described^75. The back skin of mice was shaved with an electric clipper to reveal skin colour changes and hair coat recovery. […] Telogen length was quantified as described previously^19.

FACS-purified HFSCs = experiment: Colony formation assay of cultured HFSCs; type: cell-based, mouse
Procedure: For the isolation of HFSCs, mouse dorsal skin was dissected, and the fat layer was removed using a surgical scalpel. The skin was incubated in trypsin-EDTA at 37° C. for 35-45 min on an orbital shaker. Single-cell suspension was obtained by scraping the epidermal side and filtering. Cells were centrifuged for 8 min at 350 g at 4° C., resuspended in 5% fetal bovine serum, and stained for 30-40 min. The following antibodies were used: CD49f (Integrin alpha 6)-PE (eBioscience, 12-0495-82; 1:500); CD34-eFlour660 (eBioscience, 50-0341-82; 1:100); Sca-1-PerCP-Cy5.5 (eBioscience, 45-5981-82; 1:1000); and CD45-eFlour450 (eBioscience, 48-0451-82; 1:250). The HFSCs were isolated as CD45^−, Integrin alpha 6^+, CD34^+, Sca-1^− cells.
FACS-purified HFSCs were plated on mitomycin C (P212121, Cat #M92010)-treated J2 fibroblast feeders at a density of 10,000 cells/well of 12-well plates, in E media supplemented with 15% (v/v) serum and 0.3 mM calcium as described in previous studies^78,79. For Gas6-treatment, E medium was supplemented with recombinant mouse Gas6 protein (R&D systems, Cat #8310-GS) at 500 ng/ml. For R428-treatment experiments, E medium was supplemented with R428 (APExBIO, Cat #A8329) at 1 μM. Cells were fixed and stained with 1% (wt/vol) Rhodamine B (Millipore Sigma, R6626). Colony diameter was measured from scanned images of plates using Image J.

C57BL/6 mice = experiment: Hair cycle progression of C57BL/6 mice under chronic corticosterone feeding; type: in vivo; conditions: wild-type mice, supplemental corticosterone in drinking water from second telogen; vehicle mice entered anagen around P90-P100
Procedure: The hair cycle progression was documented by standardized photographs at the start of each experiment and weekly thereafter. Anagen was determined by darkening of the skin followed by hair growth as previously described^75. The back skin of mice was shaved with an electric clipper to reveal skin colour changes and hair coat recovery. Once the hair coat recovery reached ˜90% of the back skin, the mice were shaved again to monitor the entry into next anagen. Telogen length was quantified as described previously^19. 35 μg/ml Corticosterone (Millipore Sigma, C2505) was dissolved in vehicle (0.45% hydroxypropyl-β-cyclodextrine in drinking water) in drinking water during the entire corticosterone feeding period. Corticosterone water was changed every 3 days to prevent degradation. Control animals received the vehicle water.

[2] = Plasma corticosterone levels by ELISA after corticosterone feeding; type: in vivo, mice
Procedure: 35 μg/ml Corticosterone (Millipore Sigma, C2505) was dissolved in vehicle (0.45% hydroxypropyl-β-cyclodextrine in drinking water) in drinking water during the entire corticosterone feeding period. Corticosterone water was changed every 3 days to prevent degradation. Control animals received the vehicle water. Blood corticosterone levels were measured by ELISA (ARBOR assays, [MUT]-H1) according to the manufacturer's instruction. Serum was collected using the heparinized tubes (Microvette® CB 300 LH or Microvette® 300 LH, Sarstedt) between 10 a.m. and 12 p.m.

hair follicle = conditions: corticosterone feeding mice
Procedure: 35 μg/ml Corticosterone (Millipore Sigma, C2505) was dissolved in vehicle (0.45% hydroxypropyl-β-cyclodextrine in drinking water) in drinking water during the entire corticosterone feeding period. Corticosterone water was changed every 3 days to prevent degradation. Control animals received the vehicle water.
The skin samples were fixed in 4% paraformaldehyde (PFA, Electron Microscopy Sciences, Cat #15713) for 15 min at room temperature, washed in phosphate buffered saline (PBS), immersed in 30% sucrose solution overnight at 4° C., and embedded in optimal cutting temperature compound (Sakura Finetek, Cat #4583). 35 μm thick sections were fixed in 4% PFA. The fixed slides were then blocked in blocking buffer (5% Donkey serum, 1% bovine serum albumin, 2% cold-water fish gelatin in 0.3% Triton X-100 in PBS) for 1 h at room temperature, incubated with primary antibodies overnight at 4° C., and incubated with secondary antibodies for 2-4 h at room temperature. The following antibodies and dilutions were used: CD34 (eBioscience, 14-0341-85, 1:100), P-Cadherin (R&D Systems, AF761, 1:400), GFP (Abcam, ab290, 1:5000) and Cleaved Caspase-3 (Cell Signaling Technology, 1:300). DAPI was used as a counterstain for the nucleus.

ADX mice [3] = experiment: Hair cycle progression of ADX mice fed corticosterone in drinking water; type: in vivo; conditions: 35 μg/ml corticosterone in drinking water
Procedure: as §1
The hair cycle progression was documented by standardized photographs at the start of each experiment and weekly thereafter. Anagen was determined by darkening of the skin followed by hair growth as previously described^75. The back skin of mice was shaved with an electric clipper to reveal skin colour changes and hair coat recovery. Once the hair coat recovery reached ˜90% of the back skin, the mice were shaved again to monitor the entry into next anagen. Telogen length was quantified as described previously^19.
Control animals received the vehicle water.

Molecule: Nc1nc(Nc2ccc3c(c2)CC[C@@H](N2CCCC2)CC3)nn1-c1cc2c(nn1)-c1ccccc1CCC2 [R428]
- anagen entry / hair growth (hair cycle progression) (ADX mice [1]): suppressed their precocious anagen entry; also recorded: repress the phenotypes of ADX; also recorded: inhibit hair growth
- HFSC colony formation (FACS-purified HFSCs; R428 at 1 μM in E medium): inhibited HFSC colony formation

Molecule: C[C@]12C[C@H](O)[C@H]3[C@@H](CCC4=CC(=O)CC[C@@]43C)[C@@H]1CC[C@@H]2C(=O)CO [corticosterone]
- anagen entry (hair cycle progression) (C57BL/6 mice): stayed in telogen
- plasma corticosterone levels ([2]; ADX mice, corticosterone in drinking water): restored
- corticosterone levels in the circulation ([2]; wild-type mice, supplemental corticosterone in drinking water): enhanced corticosterone levels in the circulation
- abnormal cell death in hair follicle (aCAS3) (hair follicle): does not display abnormal cell death
- HFSC activation / quiescence (hair cycle progression) (ADX mice [3]): effectively suppressed the aberrant activation of HFSCs; also recorded: suppress the loss of HFSC quiescence of ADX mice

B1: Gas6: recombinant mouse Gas6 protein (R&D systems, Cat #8310-GS); gamma-carboxyglutamic acid-containing secreted protein, AXL ligand (protein, UniProt Q61592 28-674, looked up)
Growth arrest-specific …: VLLRAREAAQFLRPRQRRAYQVFEEAKQGHLERECVEEVCSKEEAREVFENDPETEYFYPRYQECMRKYGRPEEKNPDFAKCVQNLPDQCTPNPCDKKGTHICQDLMGNFFCVCTDGWGGRLCDKDVNECVQKNGGCSQVCHNKPGSFQCACHSGFSLASDGQTCQDIDECTDSDTCGDARCKNLPGSYSCLCDEGYTYSSKEKTCQDVDECQQDRCEQTCVNSPGSYTCHCDGRGGLKLSPDMDTCEDILPCVPFSMAKSVKSLYLGRMFSGTPVIRLRFKRLQPTRLLAEFDFRTFDPEGVLFFAGGRSDSTWIVLGLRAGRLELQLRYNGVGRITSSGPTINHGMWQTISVEELERNLVIKVNKDAVMKIAVAGELFQLERGLYHLNLTVGGIPFKESELVQPINPRLDGCMRSWNWLNGEDSAIQETVKANTKMQCFSVTERGSFFPGNGFATYRLNYTRTSLDVGTETTWEVKVVARIRPATDTGVLLALVGDDDVVPISVALVDYHSTKKLKKQLVVLAVEDVALALMEIKVCDSQEHTVTVSLREGEATLEVDGTKGQSEVSTAQLQERLDTLKTHLQGSVHTYVGGLPEVSVISAPVTAFYRGCMTLEVNGKILDLDTASYKHSDITSHSCPPVEHATP
- HFSC colony formation (FACS-purified HFSCs; recombinant mouse Gas6 protein at 500 ng/ml in E medium): formed more colonies

— patent publication US20220387552A1, “METHODS OF MODULATING HAIR FOLLICLE STEM CELL QUIESCENCE BY MODULATING DERMAL NICHE ACTIVATOR GAS6” (President and Fellows of Harvard College, priority 2019, published 2022)
